Experimental data as given in patent publication US20250197368A1 (priority 2020, published 2025).
Where “and” joins values, the source holds several entries; their conditions need not be identical. Equal values may be shown once.

What was measured:
[1] = system: rat brain benzodiazepine binding sites on GABAAR; assay: Rat brain receptor occupancy assay ([3H]flumazenil binding); format: in vivo; conditions: for occupancy of rat brain GABAA receptors (benzodiazepine binding sites): mean±SEM
Method: The occupancy of rat brain benzodiazepine binding sites on GABAAR by compound was measured by its ability to inhibit the ex vivo binding of [^3H]Ro15-1788 ([^3H] flumazenil) in brain samples from rats dosed with the test compound.
Male Sprague Dawley rats (c. 200-300 g) were used for the studies. All animals were acclimatized 5-7 days before dosing and were handled and weighed prior to treatments.
Rats (3 to 6 per group) were dosed p.o. with either the vehicle or the test compound suspended in vehicle (doses of 0.1 to 10 mg/kg) at a volume of 5 mL per kg of body weight. To block all benzodiazepine binding sites and therefore define the level of non-specific binding of [^3H]Ro15-1788, a separate group of animals received a dose of 5 mg/kg p.o. of bretazenil (5 mL/kg) made up in 70% PEG, 30 minutes before the animals were killed.
At predetermined time intervals, animals were culled via stunning and cervical dislocation. Brain tissues were harvested promptly, and each left and right hemisphere were snap frozen and stored at −80° C.
On the day of the brain samples analysis, each left hemisphere was weighed and homogenized in 8 volumes of ice-cold 10 mM potassium phosphate buffer (pH 7.4). 300 μL of the mixture was further diluted by adding it to a tube containing 1050 μL of assay buffer and [^3H] flumazenil further added to make a total volume of 1500 μL and achieve a final concentration of 4 nM, mixing immediately and incubating on ice.
Following 20 seconds incubation time, the sample was rapidly filtered through Whatman GF/B filter in triplicates (500 μL/filter) using a vacuum filtration manifold. The filters were subsequently washed with 10 mL of ice cold 50 mM Tris buffer (pH 7.4) and then placed into scintillation vials containing scintillation fluid. Filter-bound radioactivity was counted on a TriCarb2900 scintillation counter.
In each experiment, the value of nonspecific binding defined using bretazenil was subtracted from all groups to give values of specific binding.
The percent GABAAR occupancy of the test compound at a specific dose and treatment time was calculated as the percentage by which the specific binding in the vehicle treated group was inhibited by the drug. Therefore, the % occupancy of the modulator in drug-treated animals was expressed as: 100−((Average test compound−Average bretazenil)/(Average vehicle−Average Bretazenil)*100) where ‘average test compound’, ‘average bretazenil’ and ‘average vehicle’ are the average counts in test compound-, bretazenil- and vehicle-treated animals, respectively.

Male Sprague Dawley rats = assay: Elevated plus maze assay; format: in vivo; conditions: for percent time spent on open arms versus vehicle treated rats: rat; for effect in the rat elevated plus maze assay: dosed orally
Source text: The method, which detects anxiolytic activity, follows that described by Handley and Mithani (Naunyn. Schmied. Arch. Pharmacol., 327, 1-5, 1984). Rodents avoid open spaces (the open arms of an elevated plus-maze). Anxiolytics increase exploratory activity in the open arms, as indicated by increased time spent on the open arms and/or by increased % open-arm entries.
The maze was made from black matte acrylic and consisted of 4 arms of equal length and width (50×10 cm) arranged in the form of a plus sign (+). Two opposite arms were enclosed by 40 cm high walls (closed arms). The two other arms have no walls (open arms). The maze was raised approximately 65 cm above the floor.
Male Sprague Dawley rats (c. 200-300 g) were used for the study. 13 to 15 rats were studied per group.
Compounds were evaluated at three or four doses, administered p.o. 30 minutes to 2 hours before the test, at 5 mL per kg of body weight and its effects compared with vehicle-treated group.-Chlordiazepoxide hydrochloride (5 mg/kg, prepared in 0.9% saline), administered i.p. 30 minutes before the test, was used as reference substance to compare with the vehicle treated group.
The day before the test, rats were weighed. The compounds were prepared at least 24 hours before the test day. 30 minutes after dosing, each rat was placed in the centre of the apparatus and its behaviour was recorded for 5 minutes. The animals' behaviour on the maze was tracked using a camera mounted above the maze and the image analysed using EthoVision XT 13 video tracking software.
The percentage of time spent in the open arms was calculated by dividing the time spent on open arms to the total time in the maze.
Data were analysed by comparing treated groups with vehicle control group using one-way ANOVA followed by post-hoc Dunnett's tests.

| Structure (SMILES) | occupancy of rat brain GABAA receptors (benzodiazepine binding sites) ([1]; 10 mg/kg p.o.) | occupancy of rat brain benzodiazepine binding sites, dose dependence ([1]; doses 0.1 to 10 mg/kg p.o.) | percent time spent on open arms versus vehicle treated rats (Male Sprague Dawley rats; 1, 3, and 10 mg/kg p.o.) | effect in the rat elevated plus maze assay (Male Sprague Dawley rats) | occupancy of rat brain benzodiazepine binding sites, dose dependence ([1]; doses 0.3 to 10 mg/kg p.o.) | percent time spent on open arms versus vehicle treated rats (Male Sprague Dawley rats; 1 and 3 mg/kg p.o.) | occupancy of rat brain GABAA receptors (benzodiazepine binding sites) ([1]; 1 mg/kg p.o.) [%] | percent time spent on open arms versus vehicle treated rats (Male Sprague Dawley rats; 0.3, 1 and 3 mg/kg p.o.) |
| --- | --- | --- | --- | --- | --- | --- | --- | --- |
| CCCNC(=O)c1c(N)c2cccc(-c3cnccc3OC)c2[nH]c1=O [Example 17, 4-Amino-8-(4-methoxy-3-pyridyl)-2-oxo-N-propyl-1H-quinoline-3-carboxamide] | 101+0.5% and 101±0.5% | dose-dependent | significantly higher | anxiolytic-like effects | – | – | – | – |
| CCCNC(=O)c1c(N)c2cccc(-c3cnc(C)cc3OC)c2[nH]c1=O [Example 18, 4-Amino-8-(4-methoxy-6-methyl-3-pyridyl)-2-oxo-N-propyl-1H-quinoline-3-carboxamide] | – | – | – | anxiolytic-like effects | dose-dependent | significantly higher | – | – |
| CCCNC(=O)c1c(N)c2cccc(-c3nc(C)ncc3F)c2[nH]c1=O [Example 40, 4-Amino-8-(5-fluoro-2-methyl-pyrimidin-4-yl)-2-oxo-N-propyl-1H-quinoline-3-carboxamide] | – | dose-dependent | – | anxiolytic-like effects | – | – | 97.3±2.0 | significantly higher |
